According to ChEMBL document CHEMBL1671626, “In vitro profiling of ceftaroline against a collection of recent bacterial clinical isolates from across the United States” (2008):
In brackets after ≈: the same amount, converted by molar mass.

What was measured:
Format in all cases: functional
Enterobacteriaceae [1] = experiment: Antibacterial activity against ceftazidime-susceptible Enterobacteriaceae by CLSI M7-A7 broth microdilution method
Streptococcus agalactiae [2] = experiment: Antibacterial activity against erythromycin-susceptible Streptococcus agalactiae assessed as susceptible isolates by CLSI M7-A7 broth microdilution method
Streptococcus pneumoniae [3] = experiment: Antibacterial activity against penicillin-susceptible Streptococcus pneumoniae assessed as resistant isolates by CLSI M7-A7 broth microdilution method
Staphylococcus aureus [4] = experiment: Antibacterial activity against coagulase-negative and oxacillin-resistant Staphylococcus aureus assessed as resistant isolates by CLSI M7-A7 broth microdilution method
Escherichia coli [5] = experiment: Antibacterial activity against ceftazidime-nonsusceptible Escherichia coli assessed as susceptible isolates by CLSI M7-A7 broth microdilution method
Enterobacter cloacae [6] = experiment: Antibacterial activity against ceftazidime-susceptible Enterobacter cloacae assessed as susceptible isolates by CLSI M7-A7 broth microdilution method
Staphylococcus aureus [7] = experiment: Antibacterial activity against methicillin-resistant Staphylococcus aureus by CLSI M7-A7 broth microdilution method
Streptococcus pyogenes [8] = experiment: Antibacterial activity against erythromycin-susceptible Streptococcus pyogenes assessed as susceptible isolates by CLSI M7-A7 broth microdilution method
Streptococcus pyogenes [9] = experiment: Antibacterial activity against erythromycin-nonsusceptible Streptococcus pyogenes by CLSI M7-A7 broth microdilution method
Proteus mirabilis [10] = experiment: Antibacterial activity against ceftazidime-susceptible Proteus mirabilis assessed as resistant isolates by CLSI M7-A7 broth microdilution method
Enterobacteriaceae [11] = experiment: Antibacterial activity against ceftazidime-susceptible Enterobacteriaceae assessed as resistant isolates by CLSI M7-A7 broth microdilution method
Citrobacter freundii [12] = experiment: Antibacterial activity against ceftazidime-nonsusceptible Citrobacter freundii assessed as susceptible isolates by CLSI M7-A7 broth microdilution method
Streptococcus pneumoniae [13] = experiment: Antibacterial activity against penicillin-resistant Streptococcus pneumoniae by CLSI M7-A7 broth microdilution method
Enterobacteriaceae [14] = experiment: Antibacterial activity against ceftazidime-susceptible Enterobacteriaceae assessed as susceptible isolates by CLSI M7-A7 broth microdilution method
Streptococcus viridans [15] = experiment: Antibacterial activity against penicillin-susceptible Streptococcus viridans assessed as resistant isolates by CLSI M7-A7 broth microdilution method
Citrobacter freundii [16] = experiment: Antibacterial activity against ceftazidime-susceptible Citrobacter freundii by CLSI M7-A7 broth microdilution method
Enterobacter cloacae [17] = experiment: Antibacterial activity against ceftazidime-nonsusceptible Enterobacter cloacae assessed as susceptible isolates by CLSI M7-A7 broth microdilution method
Streptococcus pyogenes [18] = experiment: Antibacterial activity against erythromycin-nonsusceptible Streptococcus pyogenes assessed as susceptible isolates by CLSI M7-A7 broth microdilution method
Enterobacter cloacae [19] = experiment: Antibacterial activity against ceftazidime-susceptible Enterobacter cloacae assessed as resistant isolates by CLSI M7-A7 broth microdilution method
Haemophilus influenzae [20] = experiment: Antibacterial activity against beta lactamase-positive Haemophilus influenzae assessed as susceptible isolates by CLSI M7-A7 broth microdilution method
Klebsiella pneumoniae [21] = experiment: Antibacterial activity against ceftazidime-susceptible Klebsiella pneumoniae assessed as susceptible isolates by CLSI M7-A7 broth microdilution method
Haemophilus influenzae [22] = experiment: Antibacterial activity against beta lactamase-positive Haemophilus influenzae by CLSI M7-A7 broth microdilution method
Haemophilus influenzae [23] = experiment: Antibacterial activity against beta lactamase-negative Haemophilus influenzae by CLSI M7-A7 broth microdilution method
Proteus mirabilis [24] = experiment: Antibacterial activity against ceftazidime-susceptible Proteus mirabilis by CLSI M7-A7 broth microdilution method
Klebsiella pneumoniae [25] = experiment: Antibacterial activity against ceftazidime-nonsusceptible Klebsiella pneumoniae assessed as susceptible isolates by CLSI M7-A7 broth microdilution method
Acinetobacter [26] = experiment: Antibacterial activity against multidrug-resistant Acinetobacter assessed as susceptible isolates by CLSI M7-A7 broth microdilution method
Streptococcus agalactiae [27] = experiment: Antibacterial activity against erythromycin-nonsusceptible Streptococcus agalactiae assessed as susceptible isolates by CLSI M7-A7 broth microdilution method
Staphylococcus aureus [28] = experiment: Antibacterial activity against methicillin-susceptible Staphylococcus aureus assessed as susceptible isolates by CLSI M7-A7 broth microdilution method
Citrobacter freundii [29] = experiment: Antibacterial activity against ceftazidime-nonsusceptible Citrobacter freundii assessed as resistant isolates by CLSI M7-A7 broth microdilution method
Streptococcus viridans [30] = experiment: Antibacterial activity against penicillin-nonsusceptible Streptococcus viridans assessed as susceptible isolates by CLSI M7-A7 broth microdilution method
Providencia sp. = experiment: Antibacterial activity against ceftazidime-susceptible Providencia sp. by CLSI M7-A7 broth microdilution method
Escherichia coli [31] = experiment: Antibacterial activity against ceftazidime-nonsusceptible Escherichia coli assessed as resistant isolates by CLSI M7-A7 broth microdilution method
Citrobacter freundii [32] = experiment: Antibacterial activity against ceftazidime-nonsusceptible Citrobacter freundii by CLSI M7-A7 broth microdilution method
Staphylococcus aureus [33] = experiment: Antibacterial activity against coagulase-negative and oxacillin-susceptible Staphylococcus aureus by CLSI M7-A7 broth microdilution method
Enterobacteriaceae [34] = experiment: Antibacterial activity against ceftazidime-nonsusceptible Enterobacteriaceae by CLSI M7-A7 broth microdilution method
Acinetobacter [35] = experiment: Antibacterial activity against multidrug-resistant Acinetobacter assessed as resistant isolates by CLSI M7-A7 broth microdilution method
Pasteurella multocida = experiment: Antibacterial activity against Pasteurella multocida assessed as susceptible isolates by CLSI M7-A7 broth microdilution method
Acinetobacter [36] = experiment: Antibacterial activity against imipenem-susceptible Acinetobacter by CLSI M7-A7 broth microdilution method
Enterococcus faecalis = experiment: Antibacterial activity against vancomycin-resistant Enterococcus faecalis by CLSI M7-A7 broth microdilution method
Streptococcus pneumoniae [37] = experiment: Antibacterial activity against penicillin-resistant Streptococcus pneumoniae assessed as resistant isolates by CLSI M7-A7 broth microdilution method
Enterobacteriaceae [38] = experiment: Antibacterial activity against ceftazidime-nonsusceptible Enterobacteriaceae assessed as susceptible isolates by CLSI M7-A7 broth microdilution method
Streptococcus viridans [39] = experiment: Antibacterial activity against penicillin-nonsusceptible Streptococcus viridans by CLSI M7-A7 broth microdilution method
Klebsiella pneumoniae [40] = experiment: Antibacterial activity against ceftazidime-nonsusceptible Klebsiella pneumoniae by CLSI M7-A7 broth microdilution method
Morganella morganii = experiment: Antibacterial activity against ceftazidime-susceptible Morganella morganii by CLSI M7-A7 broth microdilution method
Enterobacteriaceae [41] = experiment: Antibacterial activity against ceftazidime-nonsusceptible Enterobacteriaceae assessed as resistant isolates by CLSI M7-A7 broth microdilution method

CO/N=C(\C(=O)N[C@@H]1C(=O)N2C(C(=O)O)=C(CSc3nc(=O)c(O)nn3C)CS[C@H]12)c1csc(N)n1 [CEFTRIAXONE]
MIC50 (Enterobacteriaceae [1]): ≤ 0.06 µg/mL
MIC90 (Enterobacteriaceae [1]): 0.25 µg/mL (≈ 0.451 µM)
Activity (Streptococcus agalactiae [2]): 100%
Activity (Streptococcus pneumoniae [3]): 0%
Activity (Staphylococcus aureus [4]): 22.1%
Activity (Escherichia coli [5]): 9.5%
Activity (Enterobacter cloacae [6]): 98%
MIC50 (Staphylococcus aureus [7]): 16 µg/mL (≈ 28.9 µM)
MIC90 (Staphylococcus aureus [7]): > 32 µg/mL
Activity (Streptococcus pyogenes [8]): 100%
MIC50 (Streptococcus pyogenes [9]): 0.03 µg/mL (≈ 0.0541 µM)
MIC90 (Streptococcus pyogenes [9]): 0.12 µg/mL (≈ 0.216 µM)
Activity (Proteus mirabilis [10]): 0%
Activity (Enterobacteriaceae [11]): 0%
Activity (Citrobacter freundii [12]): 6.1%
MIC50 (Streptococcus pneumoniae [13]): 1 µg/mL (≈ 1.8 µM)
MIC90 (Streptococcus pneumoniae [13]): 2 µg/mL (≈ 3.61 µM)
Activity (Enterobacteriaceae [14]): 98%
Activity (Streptococcus viridans [15]): 0%
MIC50 (Citrobacter freundii [16]): 0.12 µg/mL (≈ 0.216 µM)
MIC90 (Citrobacter freundii [16]): 0.5 µg/mL (≈ 0.902 µM)
Activity (Enterobacter cloacae [17]): 8.6%
Activity (Streptococcus pyogenes [18]): 100%
Activity (Enterobacter cloacae [19]): 0%
Activity (Haemophilus influenzae [20]): 100%
Activity (Klebsiella pneumoniae [21]): 99.5%
MIC (Haemophilus influenzae [22]): ≤ 0.06 µg/mL
MIC50 (Haemophilus influenzae [22]): ≤ 0.06 µg/mL
MIC90 (Haemophilus influenzae [22]): ≤ 0.06 µg/mL
MIC (Haemophilus influenzae [23]): ≤ 0.06 µg/mL
MIC50 (Haemophilus influenzae [23]): ≤ 0.06 µg/mL
MIC90 (Haemophilus influenzae [23]): ≤ 0.06 µg/mL
MIC50 (Proteus mirabilis [24]): ≤ 0.06 µg/mL
MIC90 (Proteus mirabilis [24]): 0.12 µg/mL (≈ 0.216 µM)
Activity (Klebsiella pneumoniae [25]): 12.1%
Activity (Acinetobacter [26]): 0%
Activity (Streptococcus agalactiae [27]): 97.6%
Activity (Staphylococcus aureus [28]): 97.1%
Activity (Citrobacter freundii [29]): 0%
Activity (Streptococcus viridans [30]): 28.6%
MIC (Providencia sp.): ≤ 0.06 µg/mL
MIC50 (Providencia sp.): ≤ 0.06 µg/mL
MIC90 (Providencia sp.): 2 µg/mL (≈ 3.61 µM)
Activity (Escherichia coli [31]): 0%
MIC50 (Citrobacter freundii [32]): > 16 µg/mL
MIC90 (Citrobacter freundii [32]): > 16 µg/mL
MIC50 (Staphylococcus aureus [33]): 1 µg/mL (≈ 1.8 µM)
MIC90 (Staphylococcus aureus [33]): 4 µg/mL (≈ 7.21 µM)
MIC50 (Enterobacteriaceae [34]): > 16 µg/mL
MIC90 (Enterobacteriaceae [34]): > 16 µg/mL
Activity (Acinetobacter [35]): 0%
Activity (Pasteurella multocida): 100%
MIC50 (Acinetobacter [36]): 16 µg/mL (≈ 28.9 µM)
MIC90 (Acinetobacter [36]): > 16 µg/mL
MIC (Enterococcus faecalis): > 1 µg/mL
Activity (Streptococcus pneumoniae [37]): 6.8%
Activity (Enterobacteriaceae [38]): 13.2%
MIC50 (Streptococcus viridans [39]): 2 µg/mL (≈ 3.61 µM)
MIC90 (Streptococcus viridans [39]): 8 µg/mL (≈ 14.4 µM)
MIC50 (Klebsiella pneumoniae [40]): > 16 µg/mL
MIC90 (Klebsiella pneumoniae [40]): > 16 µg/mL
MIC (Morganella morganii): ≤ 0.06 µg/mL
MIC50 (Morganella morganii): ≤ 0.06 µg/mL
MIC90 (Morganella morganii): 1 µg/mL (≈ 1.8 µM)
Activity (Enterobacteriaceae [41]): 0%

C[C@H]1COc2c(N3CCN(C)CC3)c(F)cc3c(=O)c(C(=O)O)cn1c23.C[C@H]1COc2c(N3CCN(C)CC3)c(F)cc3c(=O)c(C(=O)O)cn1c23.O [LEVOFLOXACIN]
MIC50 (Enterobacteriaceae [1]): 0.06 µg/mL
MIC90 (Enterobacteriaceae [1]): 4 µg/mL
Activity (Streptococcus agalactiae [2]): 100%
Activity (Streptococcus pneumoniae [3]): 1.5%
Activity (Staphylococcus aureus [4]): 73.9%
Activity (Escherichia coli [5]): 14.3%
Activity (Enterobacter cloacae [6]): 94%
MIC50 (Staphylococcus aureus [7]): 8 µg/mL
MIC90 (Staphylococcus aureus [7]): > 16 µg/mL
Activity (Streptococcus pyogenes [8]): 100%
MIC50 (Streptococcus pyogenes [9]): 0.5 µg/mL
MIC90 (Streptococcus pyogenes [9]): 1 µg/mL
Activity (Proteus mirabilis [10]): 20.7%
Activity (Enterobacteriaceae [11]): 9.4%
Activity (Citrobacter freundii [12]): 72.7%
MIC50 (Streptococcus pneumoniae [13]): 0.5 µg/mL
MIC90 (Streptococcus pneumoniae [13]): 1 µg/mL
Activity (Enterobacteriaceae [14]): 89.6%
Activity (Streptococcus viridans [15]): 0%
MIC (Citrobacter freundii [16]): ≤ 0.03 µg/mL
MIC50 (Citrobacter freundii [16]): ≤ 0.03 µg/mL
MIC90 (Citrobacter freundii [16]): 1 µg/mL
Activity (Enterobacter cloacae [17]): 62.9%
Activity (Streptococcus pyogenes [18]): 100%
Activity (Enterobacter cloacae [19]): 2%
Activity (Haemophilus influenzae [20]): 100%
Activity (Klebsiella pneumoniae [21]): 98.1%
MIC50 (Haemophilus influenzae [22]): 0.015 µg/mL
MIC90 (Haemophilus influenzae [22]): 0.03 µg/mL
MIC50 (Haemophilus influenzae [23]): 0.015 µg/mL
MIC90 (Haemophilus influenzae [23]): 0.03 µg/mL
MIC50 (Proteus mirabilis [24]): 0.06 µg/mL
MIC90 (Proteus mirabilis [24]): 16 µg/mL
Activity (Klebsiella pneumoniae [25]): 37.9%
Activity (Acinetobacter [26]): 6.3%
Activity (Streptococcus agalactiae [27]): 97.6%
Activity (Staphylococcus aureus [28]): 83.9%
Activity (Citrobacter freundii [29]): 24.2%
Activity (Streptococcus viridans [30]): 92.9%
MIC50 (Providencia sp.): 0.25 µg/mL
MIC90 (Providencia sp.): > 16 µg/mL
Activity (Escherichia coli [31]): 85.7%
MIC50 (Citrobacter freundii [32]): 0.25 µg/mL
MIC90 (Citrobacter freundii [32]): 16 µg/mL
MIC50 (Staphylococcus aureus [33]): 0.12 µg/mL
MIC90 (Staphylococcus aureus [33]): 8 µg/mL
MIC50 (Enterobacteriaceae [34]): 8 µg/mL
MIC90 (Enterobacteriaceae [34]): > 16 µg/mL
Activity (Acinetobacter [35]): 87.5%
Activity (Pasteurella multocida): 95.5%
MIC50 (Acinetobacter [36]): 0.5 µg/mL
MIC90 (Acinetobacter [36]): > 16 µg/mL
MIC50 (Enterococcus faecalis): > 16 µg/mL
Activity (Streptococcus pneumoniae [37]): 0.7%
Activity (Enterobacteriaceae [38]): 41.8%
MIC50 (Streptococcus viridans [39]): 1 µg/mL
MIC90 (Streptococcus viridans [39]): 2 µg/mL
MIC50 (Klebsiella pneumoniae [40]): 8 µg/mL
MIC90 (Klebsiella pneumoniae [40]): > 16 µg/mL
MIC50 (Morganella morganii): ≤ 0.03 µg/mL
MIC90 (Morganella morganii): 8 µg/mL
Activity (Enterobacteriaceae [41]): 51.4%
